Literature values as cited in patent US6043276A (Georgetown University School of Medicine, priority 1999, dated 2000).

How the values were obtained:
[1] = Lin et al. 1996; cited from earlier work
[2] = tested on: xanthine oxidase; conditions: Chan et al. 1995; Chang et al. 1994; cited from earlier work
[3] = tested on: RT for HIV; conditions: Kreis et al. 1990; cited from earlier work
[4] = tested on: HIV; conditions: literature; cited from earlier work
[5] = tested on: integrase protein of HIV-1; conditions: Fesen et al.; Burke et al.; Mazumder et al.; cited from earlier work

acetylsalvianolic acid
antioxidant properties [1]: antioxidant properties

O=C(O)/C=C/c1ccc(O)c(O)c1 [Caffeic acid]
xanthine oxidase inhibition [2]: inhibit xanthine oxidase | antiviral activity, RT assay for HIV [3]: has antiviral activity

O=C(/C=C/c1ccc(O)c(O)c1)O[C@H](Cc1ccc(O)c(O)c1)C(=O)O [Rosemarinic acid]
anti-HIV activity [4]: possesses anti-HIV activity

O=C(/C=C/c1ccc(O)c(O)c1/C=C/c1ccc(O)c(O)c1)O[C@H](Cc1ccc(O)c(O)c1)C(=O)O [salvianolic acid A]
antioxidant properties [1]: antioxidant properties

O=C(/C=C/c1ccc(O)c(O)c1)OCCc1ccccc1 [CAPE, Caffeic acid phenethyl esters]
inhibitory activity on the integrase protein of HIV-1 [5]: exert inhibitory activity
